Test results as given in PubChem BioAssay AID298 (DTP/NCI, 2004).
Where “and” joins values, the source holds several entries; their conditions need not be identical. Equal values may be shown once. Inconclusive results are not listed.

Test system: MX-1 breast xenograft, intrarenal, nude mice, tumor weight
Test: NCI In Vivo Anticancer Drug Screen. Data for tumor model Human Mammary Carcinoma MX-1 Xenograft (intrarenal inoculation) in NU/NU BALB/C (nude) mice
Details: endpoint: mean tumor weight change, higher = larger tumour
Outline: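 Mice w/ transplanted tumors, drug vs vehicle; endpoint survival or tumor size; value = T/C.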

CC(=O)N(C)O
T/C (dose: 37.5 mg/kg/injection, schedule: Q04DX003 (sc), vehicle: saline with Tween-80): 98 % of control
T/C (dose: 75.0 mg/kg/injection, schedule: Q04DX003 (sc), vehicle: saline with Tween-80): 80 % of control
T/C (dose: 150.0 mg/kg/injection, schedule: Q04DX003 (sc), vehicle: saline with Tween-80): 69 % of control
T/C (dose: 300.0 mg/kg/injection, schedule: Q04DX003 (sc), vehicle: saline with Tween-80): 87 % of control

O=NN(CCCl)C(=O)NC1CCCCC1
T/C (dose: 4.0 mg/kg/injection, schedule: Q01DX010 (ip), vehicle: saline with Tween-80): 303 % of control
T/C (dose: 8.0 mg/kg/injection, schedule: Q01DX010 (ip), vehicle: saline with Tween-80): 248 % of control
T/C (dose: 8.0 mg/kg/injection, schedule: Q01DX010 (sc), vehicle: saline with Tween-80): 71 % of control
T/C (dose: 12.5 mg/kg/injection, schedule: Q04DX003 (sc), vehicle: Klucel (hydroxypropylcellulose) (HPC)): 66 % of control
T/C (dose: 13.33 mg/kg/injection, schedule: Q04DX003 (ip), vehicle: saline with Tween-80): 105 % of control
T/C (dose: 16.0 mg/kg/injection, schedule: Q01DX010 (ip), vehicle: saline with Tween-80): 263 % of control
T/C (dose: 16.0 mg/kg/injection, schedule: Q01DX010 (sc), vehicle: saline with Tween-80): 61 % of control
T/C (dose: 25.0 mg/kg/injection, schedule: Q04DX003 (sc), vehicle: Klucel (hydroxypropylcellulose) (HPC)): 67 % of control
T/C (dose: 26.65 mg/kg/injection, schedule: Q04DX003 (ip), vehicle: saline with Tween-80): 36 % of control
T/C (dose: 26.66 mg/kg/injection, schedule: Q04DX003 (sc), vehicle: saline with Tween-80): 64 % of control
T/C (dose: 32.0 mg/kg/injection, schedule: Q01DX010 (ip), vehicle: saline with Tween-80): 8 % of control
T/C (dose: 32.0 mg/kg/injection, schedule: Q01DX010 (sc), vehicle: saline with Tween-80): 3 % of control
T/C (dose: 50.0 mg/kg/injection, schedule: Q04DX003 (sc), vehicle: Klucel (hydroxypropylcellulose) (HPC)): 31 % of control
T/C (dose: 53.3 mg/kg/injection, schedule: Q04DX003 (ip), vehicle: saline with Tween-80): 42 % of control
T/C (dose: 53.33 mg/kg/injection, schedule: Q04DX003 (sc), vehicle: saline with Tween-80): 31 % of control

Nc1ncnc2c1c1c(=O)[nH]c(=O)[nH]c1n2C1OC(CO)C(O)C1O (centres undefined)
T/C (dose: 112.5 mg/kg/injection, schedule: Q04DX003 (sc), vehicle: distilled water + Tween-80): 62 % of control
T/C (dose: 225.0 mg/kg/injection, schedule: Q04DX003 (sc), vehicle: distilled water + Tween-80): 63 % of control
T/C (dose: 450.0 mg/kg/injection, schedule: Q04DX003 (sc), vehicle: distilled water + Tween-80): 31 % of control
T/C (dose: 900.0 mg/kg/injection, schedule: Q04DX003 (sc), vehicle: distilled water + Tween-80): 25 % of control

CCCCCCn1c(SC)nc(COC(=O)NC)c1COC(=O)NC
T/C (dose: 33.7 mg/kg/injection, schedule: Q04DX003 (ip), vehicle: saline): 6 % of control
T/C (dose: 67.5 mg/kg/injection, schedule: Q04DX003 (ip), vehicle: saline): -37 % of control
T/C (dose: 135.0 mg/kg/injection, schedule: Q04DX003 (ip), vehicle: saline): -86 % of control
T/C (dose: 270.0 mg/kg/injection, schedule: Q04DX003 (ip), vehicle: saline): -100 % of control

c1ccc2c3c(c4c(c2c1)CN(C1CCCCC1)CO4)OCN(C1CCCCC1)C3
T/C (dose: 37.5 mg/kg/injection, schedule: Q04DX003 (ip), vehicle: water): 108 % of control
T/C (dose: 75.0 mg/kg/injection, schedule: Q04DX003 (ip), vehicle: water): 82 % of control and 88 % of control
T/C (dose: 150.0 mg/kg/injection, schedule: Q04DX003 (ip), vehicle: water): 59 % of control
T/C (dose: 300.0 mg/kg/injection, schedule: Q04DX003 (ip), vehicle: water): 111 % of control

S=C(NCNC(=S)c1ccncc1)c1ccncc1
T/C (dose: 300.0 mg/kg/injection, schedule: Q04DX003 (ip), vehicle: saline with Tween-80): 97 % of control
T/C (dose: 600.0 mg/kg/injection, schedule: Q04DX003 (ip), vehicle: saline with Tween-80): 40 % of control

C=CC(=O)N1CN(C(=O)C=C)CN(C(=O)C=C)C1
T/C (dose: 6.25 mg/kg/injection, schedule: Q01DX010 (sc), vehicle: saline with Tween-80): 116 % of control
T/C (dose: 12.5 mg/kg/injection, schedule: Q01DX010 (sc), vehicle: saline with Tween-80): 179 % of control

COc1ccc(O)cc1
T/C (dose: 50.0 mg/kg/injection, schedule: Q04DX003 (ip), vehicle: saline with Tween-80): 76 % of control
T/C (dose: 100.0 mg/kg/injection, schedule: Q04DX003 (ip), vehicle: saline with Tween-80): 87 % of control
T/C (dose: 200.0 mg/kg/injection, schedule: Q04DX003 (ip), vehicle: saline with Tween-80): 79 % of control
T/C (dose: 400.0 mg/kg/injection, schedule: Q04DX003 (ip), vehicle: saline with Tween-80): 53 % of control
